Results as given in US8039468B2, “Method of inhibition of respiratory depression using positive allosteric AMPA receptor modulators” (The Governors of the University of Alberta, priority 2006, dated 2011).
“Also recorded” adds a separate entry of the source. Marks after values point to notes of the source that are not given here.

Experiments:
[1] = test system: brainstem-spinal cord preparations; experiment: Brainstem-spinal cord preparation, rhythmic respiratory discharge (C4 ventral root); parameters: species or system rat
Excerpt: The fetal and neonatal brainstem-spinal cord preparations have been well-characterized and shown to generate complex, coordinated patterns of respiratory-related activity. See, Smith J. C. et al. (1990) and Greer, J. J. et al. (1992). Recordings from cervical ventral and hypoglossal cranial roots provide information regarding the pharmacology of respiratory rhythm generating networks and the pathways transmitting that respiratory drive to key output components of the respiratory motor system, without the confounding influence of peripheral chemoreceptors and supramedullary structures.
Brainstem-spinal cord preparations were carried out as follows: Sprague-Dawley (SD) rat fetuses were delivered from timed-pregnant dams anesthetized with halothane (2% delivered in 95% O2 and 5% CO2) and maintained at 37° C. by radiant heat, following procedures approved by the Animal Welfare Committee at the University of Alberta. The timing of pregnancies was determined by vaginal lavage of the dam. Newborn rat pups were anesthetized with metofane. Newborn pups and embryos were then decerebrated and the brainstem-spinal cord was dissected following procedures similar to those established for perinatal rats. See, Smith, J. C., et al. (1990) J. Neurophysiol. 64:1149-1169; Greer, J. J., et al. (1992) J. Neurophysiol. 67:996-999. The neuraxis was continuously perfused at 27±1° C. (perfusion rate 5 ml/minute, chamber volume of 1.5 ml) with modified Kreb's solution that contained (mM): 128 NaCl, 3.0 KCl, 1.5 CaCl2, 1.0 MgSO4, 24 NaHCO3, 0.5 NaH2PO4, and 30 D-glucose equilibrated with 95% O2-5% CO2 (pH=7.4).

[2] = test system: medullary slice preparations (preBötC, XII motoneuron nucleus); experiment: Medullary slice preparation, respiratory rhythm (XII nerve root discharge); parameters: species or system rat; conditions: for DAMGO-induced suppression of inspiratory discharge amplitude, focal injection into XII motorneuron nucleus / DAMGO-induced suppression of respiratory rhythm, focal injection into preBötC: newborn (P2) slice, CX614 200 μM, Compound A 1 mM, DAMGO in bath
Experimental: The medullary slice preparation is a derivative of the brainstem-spinal cord preparation. See, Smith J. C., et al. (1991). It contains the minimum component of neuronal populations within the ventrolateral medulla necessary for generating a respiratory rhythm, the preBötC. The medullary slice also contains a significant portion of the rostral ventral respiratory group, hypoglossal nucleus and XII cranial nerve rootlets from which inspiratory motor discharge is recorded.
Brainstem-spinal cords isolated from newborn rats were pinned down, ventral surface upward, on a paraffin-coated block. See, Funk, G. D., et al. (1993); Smith, J. C., et al. (1991). The block was mounted in the vise of a vibratome bath (Leica, VT1000S). […] A single transverse slice containing the preBötC and more caudal reticular formation regions was then cut (500-600 μm thick), transferred to a recording chamber and pinned down onto a Sylgard elastomer. The medullary slice was continuously perfused with a bathing solution identical to that used for the brainstem-spinal cord preparation with the exception that in some cases the K^+ concentration was increased to 9 mM which facilitates long-term generation of stable rhythm (>5 hours) by these preparations. See, Funk, G. D., et al. (1993); Smith, J. C., et al. (1991). Recordings were made from the hypoglossal (XII) cranial nerve roots, cervical (C4) ventral roots and neuronal population discharge within the ventrolateral medulla with suction electrodes placed over the nerve roots or on the surface of the rhythmic slice preparations.

[3] = test system: perfused heart in situ preparations; experiment: Perfused heart in situ preparation, phrenic nerve discharge; parameters: species or system rat; conditions: fentanyl 4 nM, then CX546 50 μM in perfusate
[4] = test system: inspiratory neuron within the preBötzinger complex; experiment: Whole-cell recording from inspiratory neuron within the preBötzinger complex, medullary slice; type: cell-based, rat
rats = experiment: Thermal nociception, hind paw withdrawal test; type: in vivo, rat
XII motorneuron = type: cell-based, rat; conditions: compound in bathing medium, TTX present
[5] = listed as 4-(BENZOFURAZAN-5-YLCARBONYL)MORPHOLINE

SMILES: O=C(c1ccc2c(c1)OCCO2)N1CCCCC1 [CX546, 1-(1,4-benzodioxan-6-ylcarbonyl)piperidine]
- frequency of rhythmic respiratory discharge ([1]; E20 preparation, CX546 50-100 μM in bathing medium): markedly enhanced
- DAMGO-induced depression of respiratory frequency and amplitude ([1]; P1-P2, DAMGO 800 nM, then CX546 200 μM bath-applied): alleviated; also recorded: partially reversed
- baseline respiratory frequency ([1]; P3 preparations, bath-applied CX546): no effect on the baseline frequency
- respiratory frequency compared to control ([1]; perinatal preparations E18-P0, bath-applied CX546): significant increase in frequency
- time to restoration of frequency and amplitude to 3 mM [K+] bath levels ([2]; CX546 400 μM bath-applied after rhythm ceased in 3 mM [K+]): ≤ 2 min
- effect on rhythmic respiratory activity after cessation ([2]; CX546 400 μM bath-applied after rhythm ceased in 3 mM [K+], P2 slice): rapid and potent stimulation of respiratory networks; also recorded: restored rhythmic activity of XII motoneurons
- control values of respiratory frequency or amplitude of motor nerve discharge ([2]; CX546 on its own, 9 mM [K+]o): did not significantly alter
- DAMGO-induced depression of respiratory frequency and amplitude ([2]; P1-P2 slice, 9 mM [K+]o, DAMGO 800 nM, then CX546 200 μM bath-applied): alleviated; also recorded: partially reversed
- persistence of respiratory rhythm in presence of compound ([2]; P2 slice, 3 mM [K+]o, CX546 in bath): > 3 h
- fentanyl-induced depression of respiratory frequency and phrenic burst amplitude [3]: counters
- frequency of the rhythm and inspiratory drive potential ([4]; current clamp, low extracellular K+): increased
- amplitude of inward inspiratory drive current ([4]; voltage clamp, same neuron): marked increase
- Latency (s), hind paw withdrawal (rats; Adult (2-3 months), drug alone i.p. (CX546 16 mg/kg pre-administration of fentanyl; fentanyl 130 μg/kg)): 5.3 ± 2.1 s
- Latency (s), hind paw withdrawal (rats; Adult (2-3 months), post-administration of fentanyl 130 μg/kg, CX546 16 mg/kg or naloxone 1 mg/kg i.p.): >20* s
- sensitivity of thermal nociception tests in the control condition (rats; CX546 16 mg/kg on its own): did not change the sensitivity
- Latency (s), hind paw withdrawal (rats; Newborn (P1-P2), drug alone i.p. (CX546 16 mg/kg pre-administration of fentanyl; fentanyl 60 μg/kg)): 4.3 ± 3.2 s
- Latency (s), hind paw withdrawal (rats; Newborn (P1-P2), post-administration of fentanyl 60 μg/kg, CX546 16 mg/kg or naloxone 1 mg/kg i.p.): >20* s
- fentanyl-induced analgesia after subsequent administration of the drug (rats; newborn and adult rats, CX546 16 mg/kg or naloxone 1 mg/kg i.p.): persisted
- baseline frequency and amplitude of breathing (Sprague-Dawley rat; CX546 16 mg/kg i.p. on its own, newborn P0-P2 and adult rats): not significantly altered
- behaviour or arousal state (spontaneous movement, agitation, sedation) (Sprague-Dawley rat; rat, in vivo, ip, 16 mg/kg): without any obvious effect

SMILES: O=C(c1ccc2nonc2c1)N1CCOCC1 [Compound A, 4-(benzofurazan-5-ylcarbonyl)morpholine]
- DAMGO-induced suppression of inspiratory discharge amplitude, focal injection into XII motorneuron nucleus [2]: alleviates some of the amplitude depression
- DAMGO-induced suppression of respiratory rhythm, focal injection into preBötC [2]: alleviates the frequency depression
- DAMGO-induced suppression of inspiratory discharge amplitude, focal injection into XII motorneuron nucleus [2, 5]: alleviates DAMGO induced suppression of respiratory rhythm
- DAMGO-induced suppression of respiratory rhythm, focal injection into preBötC [2, 5]: alleviates DAMGO induced suppression of respiratory rhythm
- amplitude and duration of glutamate-induced inward currents (XII motorneuron): not significantly altered
- current amplitude in response to glutamate injections ([4]; voltage clamp, TTX present, bath-applied compound): increases
- persistence of enhancement of respiratory rhythm (Sprague-Dawley rat; rat, in vivo): at least 1 hour

SMILES: C[C@@H](NC(=O)[C@@H](N)Cc1ccc(O)cc1)C(=O)NCC(=O)N(C)[C@@H](Cc1ccccc1)C(=O)NCCO [DAMGO, Tyr-D-Ala-Gly-N-methyl-Phe-Gly-ol-enkephalin, reference compound]
- respiratory frequency and amplitude ([1]; P1 preparation, DAMGO 800 nM bath-applied): markedly suppressed
- respiratory frequency and amplitude ([2]; P1 slice in 9 mM [K+]o, DAMGO 800 nM bath-applied): markedly suppressed
